Publication PMC3235172, “Distinct Expression Profiles and Different Functions of Odorant Binding Proteins in Nilaparvata lugens Stål” (PLoS ONE, 2011)
Where two headings read alike, the source gives them in different places.

Key:
NlugOBP3 = NlugOBP3 (Nilaparvata lugens, UniProt B6E9U3); assay: Competitive fluorescence binding assay (1-NPN probe) with recombinant NlugOBP3
Method: (§1) The excitation wavelength was 337 nm and the emission spectrum was recorded between 370 and 460 nm by a fluorescence spectrometer (Hitachi F-7000 Fluorescence Spectrophotometer, Japan) with a 1 cm light path quartz cuvette and 10 nm slits for both excitation and emission.

NlugOBP2 = NlugOBP2 (Nilaparvata lugens, UniProt B6E9U2); assay: Competitive fluorescence binding assay (1-NPN probe) with recombinant NlugOBP2
Chain of NlugOBP2 (B6E9U2 entry or part of it): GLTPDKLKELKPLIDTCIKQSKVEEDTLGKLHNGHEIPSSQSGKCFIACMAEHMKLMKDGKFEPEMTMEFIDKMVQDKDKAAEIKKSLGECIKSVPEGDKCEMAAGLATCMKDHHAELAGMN
Method: as §1

NlugOBP1 = NlugOBP1 (Nilaparvata lugens, UniProt B6E9U1); assay: Competitive fluorescence binding assay (1-NPN probe) with recombinant NlugOBP1
Chain of NlugOBP1 (B6E9U1 entry or part of it): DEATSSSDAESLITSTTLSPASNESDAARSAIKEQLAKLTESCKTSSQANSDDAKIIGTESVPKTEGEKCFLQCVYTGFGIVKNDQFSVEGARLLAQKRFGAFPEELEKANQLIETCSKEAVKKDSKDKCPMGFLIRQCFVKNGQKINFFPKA
Method: as §1

[1] = calculated from IC50, protein and 1-NPN at 2 µM, pH 7.4, read-out: OBP3 Ki
[2] = displacement of 1-NPN, protein and 1-NPN at 2 µM, 50 mM Tris-HCl pH 7.4, read-out: OBP3 IC50
[3] = calculated from IC50, protein and 1-NPN at 2 µM, pH 7.4, read-out: OBP2 Ki
[4] = displacement of 1-NPN, protein and 1-NPN at 2 µM, 50 mM Tris-HCl pH 7.4, read-out: OBP2 IC50
[5] = calculated from IC50, protein and 1-NPN at 2 µM, pH 7.4, read-out: OBP1 Ki
[6] = displacement of 1-NPN, protein and 1-NPN at 2 µM, 50 mM Tris-HCl pH 7.4, read-out: OBP1 IC50

Chain of NlugOBP3 (B6E9U3 entry or part of it): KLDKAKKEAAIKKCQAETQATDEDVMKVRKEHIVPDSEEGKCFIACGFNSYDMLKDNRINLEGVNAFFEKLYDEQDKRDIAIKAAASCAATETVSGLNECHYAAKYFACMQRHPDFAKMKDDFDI

Row | Compound | Ki (NlugOBP3; [1]) | IC50 (NlugOBP3; [2]) | Ki (NlugOBP2; [3]) | IC50 (NlugOBP2; [4]) | Ki (NlugOBP1; [5]) | IC50 (NlugOBP1; [6]) | IC50 (NlugOBP3) | Ki (NlugOBP3) | IC50 (NlugOBP2) | Ki (NlugOBP2) | IC50 (NlugOBP1) | Ki (NlugOBP1) | other results
1 | C=C1CC/C=C(\C)CC[C@@H]2[C@@H]1CC2(C)C [Ligand 36, β-Caryophyllene] | – | – | – | – | – | – | 37.4 µM | 26.7 µM | 30.1 µM | 25.9 µM | > 50 µM | > 50 µM | binding ability with NlugOBP3 (in words) (NlugOBP3): considerable affinities
2 | CC/C=C/CCO [Ligand 4, (E)-3-Hexen-1-ol] | – | – | – | – | – | – | 29.6 µM | 21.1 µM | > 50 µM | > 50 µM | > 50 µM | > 50 µM | –
3 | C=C(C)[C@H]1CC=C(C)CC1 [Ligand 35, (R)-(+)-Limonene] | 23.6 µM | 33.1 µM | > 50 µM | > 50 µM | 27.6 µM | 32.4 µM | – | – | – | – | – | – | binding ability with NlugOBP3 (in words) (NlugOBP3): considerable affinities
4 | C=CC(C)(O)CCC=C(C)C (stereo not drawn) [Ligand 6, Linalool] | – | – | – | – | – | – | > 50 µM | > 50 µM | > 50 µM | > 50 µM | 40.8 µM | 34.7 µM | binding ability with NlugOBP3 (in words) (NlugOBP3): none; binding ability with NlugOBP1 (in words) (NlugOBP1): some affinities
5 | CCOC(=O)c1ccccc1 [Ligand 23, Ethyl benzoate] | – | – | – | – | – | – | 39 µM | 27.9 µM | > 50 µM | > 50 µM | > 50 µM | > 50 µM | –
6 | COC(=O)c1ccccc1O [Ligand 25, Methyl salicylate] | – | – | – | – | – | – | 44.8 µM | 32 µM | 37.4 µM | 32.2 µM | > 50 µM | > 50 µM | –
7 | CC(C)c1ccccc1 [Ligand 38, Cumene] | – | – | – | – | – | – | 37.2 µM | 26.6 µM | 39.2 µM | 33.7 µM | > 50 µM | > 50 µM | –
8 | O=Cc1ccccc1 [Ligand 14, Benzaldehyde] | – | – | – | – | – | – | 41 µM | 29.3 µM | 38.7 µM | 33.3 µM | > 50 µM | > 50 µM | –
9 | c1ccc(Nc2cccc3ccccc23)cc1 [Ligand 1-NPN, N-phenyl-1-naphthyl-amine, reference compound] | – | – | – | – | – | – | – | – | – | – | – | – | Kd (NlugOBP3): 3.2 ± 0.3 µM; Kd (NlugOBP2): 10.3 ± 1.3 µM; Kd (NlugOBP1): 9.7 ± 0.9 µM
10 | CC1=CC[C@@H]2C[C@H]1C2(C)C [Ligand 34, (+)-α-Pinene] | – | – | – | – | – | – | 16.1 µM | 11.5 µM | > 50 µM | > 50 µM | 36.4 µM | 31.1 µM | –
11 | CCCCCCCCCCCC(=O)O [Ligand 26, Dodecanoic acid] | – | – | – | – | – | – | 13.9 µM | 9.9 µM | > 50 µM | > 50 µM | 12.1 µM | 10.3 µM | –
12 | CCCCCCCCCCCC=O [Ligand 12, Dodecyl aldehyde] | 18.9 µM | 26.5 µM | > 50 µM | > 50 µM | 16.6 µM | 19.5 µM | – | – | – | – | – | – | –
13 | CCC/C=C/C=O [Ligand 13, (E)-2-Hexenal] | – | – | – | – | – | – | 42 µM | 30 µM | 33.5 µM | 28.8 µM | > 50 µM | > 50 µM | binding ability with NlugOBP3 (in words) (NlugOBP3): could bind; binding ability with NlugOBP2 (in words) (NlugOBP2): can bind; binding ability with NlugOBP1 (in words) (NlugOBP1): binds none
14 | CC(C)=CCC/C(C)=C/CO [Ligand 8, Geraniol] | – | – | – | – | – | – | 32.6 µM | 23.3 µM | > 50 µM | > 50 µM | > 50 µM | > 50 µM | –
15 | CCCCCCCCCCCCCC(C)=O [Ligand 16, 2-Pentadecanone] | 9.6 µM | 13.5 µM | 17 µM | 19.8 µM | 25.3 µM | 29.7 µM | – | – | – | – | – | – | binding ability with NlugOBP3 (in words) (NlugOBP3): relatively high binding abilities; binding ability with NlugOBP2 (in words) (NlugOBP2): relatively high binding abilities; binding ability with NlugOBP1 (in words) (NlugOBP1): relatively high binding abilities
16 | COC(C)(C)CCC[C@H](C)C/C=C/C(C)=C/C(=O)OC(C)C (racemic) [Ligand 39, Methoprene] | – | – | – | – | – | – | 14.7 µM | 10.5 µM | 21.1 µM | 18.1 µM | 19.4 µM | 16.6 µM | binding ability with NlugOBP3 (in words) (NlugOBP3): high binding ability; binding ability with NlugOBP2 (in words) (NlugOBP2): high binding ability; binding ability with NlugOBP1 (in words) (NlugOBP1): high binding ability
17 | CCCCCCCCCCCCCCCCC [Ligand 30, Heptadecane] | > 50 µM | > 50 µM | > 50 µM | > 50 µM | > 50 µM | > 50 µM | – | – | – | – | – | – | –

Continued, in another order:

Row | Ki (NlugOBP3; [1]) | IC50 (NlugOBP3; [2]) | Ki (NlugOBP2; [3]) | IC50 (NlugOBP2; [4]) | Ki (NlugOBP1; [5]) | IC50 (NlugOBP1; [6]) | Compound | IC50 (NlugOBP3) | Ki (NlugOBP3) | IC50 (NlugOBP2) | Ki (NlugOBP2) | IC50 (NlugOBP1) | Ki (NlugOBP1) | other results
18 | > 50 µM | > 50 µM | > 50 µM | > 50 µM | > 50 µM | > 50 µM | CCCCCOC(C)=O [Ligand 18, Amyl acetate] | – | – | – | – | – | – | –
19 | 7.2 µM | 10.1 µM | > 50 µM | > 50 µM | 22.1 µM | 25.9 µM | CCCCCCCCCCCCCCCC(=O)O [Ligand 27, Palmitic acid] | – | – | – | – | – | – | –
20 | > 50 µM | > 50 µM | > 50 µM | > 50 µM | > 50 µM | > 50 µM | CCCCCCCCCCCCCCCCCCCC [Ligand 28, Eicosane] | – | – | – | – | – | – | –
21 | 22 µM | 30.8 µM | > 50 µM | > 50 µM | 37.9 µM | 44.4 µM | CCCCCCOC(C)=O [Ligand 21, Hexyl acetate] | – | – | – | – | – | – | –
22 | > 50 µM | > 50 µM | > 50 µM | > 50 µM | 30.5 µM | 35.7 µM | CC(=O)OCCC(C)C [Ligand 19, Isoamyl acetate] | – | – | – | – | – | – | binding ability with NlugOBP3 (in words) (NlugOBP3): none; binding ability with NlugOBP1 (in words) (NlugOBP1): some affinities
23 | 26.1 µM | 36.6 µM | > 50 µM | > 50 µM | 34 µM | 39.9 µM | OCCc1ccccc1 [Ligand 7, 2-phenylethanol] | – | – | – | – | – | – | –
24 | > 50 µM | > 50 µM | > 50 µM | > 50 µM | > 50 µM | > 50 µM | CC12CCC(CC1)C(C)(C)O2 [Ligand 40, Cineole] | – | – | – | – | – | – | –
25 | 9.5 µM | 13.3 µM | > 50 µM | > 50 µM | 19 µM | 22.3 µM | CC(C)(C)c1cccc(C(C)(C)C)c1O [Ligand 41, 2,6-Di-tert-butylphenol] | – | – | – | – | – | – | –
26 | > 50 µM | > 50 µM | > 50 µM | > 50 µM | > 50 µM | > 50 µM | CCCCCCCCCCCCCCCCCC [Ligand 31, Octadecane] | – | – | – | – | – | – | –
27 | 27.1 µM | 38 µM | 32.5 µM | 37.8 µM | > 50 µM | > 50 µM | CC/C=C\CCOC(C)=O [Ligand 22, (Z)-3-Hexenyl acetate] | – | – | – | – | – | – | –
28 | 4.9 µM | 6.9 µM | 19.8 µM | 23 µM | 19.5 µM | 22.8 µM | CC(C)=CCC/C(C)=C/CC/C(C)=C/CO [Ligand 5, Farnesol] | – | – | – | – | – | – | binding ability with NlugOBP3 (in words) (NlugOBP3): high binding ability; binding ability with NlugOBP2 (in words) (NlugOBP2): high binding ability; binding ability with NlugOBP1 (in words) (NlugOBP1): high binding ability
29 | – | 10.1 µM | 29.1 µM | 33.9 µM | 16.2 µM | 19 µM | C=CC(=C)CCC=C(C)C [Ligand 33, Myrcene] | – | – | – | – | – | – | Ki (NlugOBP3; read-out: Ki with NlugOBP3): 7.2 µM
30 | 22.4 µM | 31.3 µM | 25.2 µM | 29.3 µM | > 50 µM | > 50 µM | CCC/C=C/COC(C)=O [Ligand 20, (E)-2-Hexenyl acetate] | – | – | – | – | – | – | –
